Assay results as given in ChEMBL document CHEMBL4507300 (2021).

Columns and labels:
[1] = molecular target: D(3) dopamine receptor (Homo sapiens) (UniProt P35462); conditions: Compound concentration 10.0 uM
[2] = system: Phosphatidylinositol 4,5-bisphosphate 3-kinase catalytic subunit alpha isoform (Homo sapiens), P42336 [E545K]; conditions: Compound concentration 1000.0 nM
[3] = molecular target: Vascular endothelial growth factor receptor 2 (Homo sapiens) (UniProt P35968); conditions: Compound concentration 1000.0 nM
[4] = molecular target: Tyrosine-protein kinase Yes (Homo sapiens) (UniProt P07947); conditions: Compound concentration 1000.0 nM
[5] = molecular target: Calcium/calmodulin-dependent protein kinase type IV (Homo sapiens) (UniProt Q16566); conditions: Compound concentration 1000.0 nM
[6] = molecular target: Interleukin-1 receptor-associated kinase 4 (Homo sapiens) (UniProt Q9NWZ3); conditions: Compound concentration 1000.0 nM
Chain of Interleukin-1 receptor-associated kinase 4 (Homo sapiens) (Q9NWZ3 whole entry): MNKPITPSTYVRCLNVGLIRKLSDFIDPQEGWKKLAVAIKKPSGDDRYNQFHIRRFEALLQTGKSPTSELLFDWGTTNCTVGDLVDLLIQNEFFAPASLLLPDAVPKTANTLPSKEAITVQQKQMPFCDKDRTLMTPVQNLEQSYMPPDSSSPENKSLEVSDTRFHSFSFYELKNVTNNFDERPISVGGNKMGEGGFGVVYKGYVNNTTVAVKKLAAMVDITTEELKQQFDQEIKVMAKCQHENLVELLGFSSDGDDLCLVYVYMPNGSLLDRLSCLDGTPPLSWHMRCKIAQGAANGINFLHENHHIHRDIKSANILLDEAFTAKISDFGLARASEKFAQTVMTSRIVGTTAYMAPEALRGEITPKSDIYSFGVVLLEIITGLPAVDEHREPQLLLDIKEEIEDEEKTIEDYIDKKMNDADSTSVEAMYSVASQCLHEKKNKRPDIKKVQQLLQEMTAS

[7] = molecular target: Mitogen-activated protein kinase kinase kinase 3 (Homo sapiens) (UniProt Q99759); conditions: Compound concentration 1000.0 nM
[8] = molecular target: Cyclin-dependent kinase-like 3 (Homo sapiens) (UniProt Q8IVW4); conditions: Compound concentration 1000.0 nM
[9] = molecular target: Tyrosine-protein kinase receptor UFO (Homo sapiens) (UniProt P30530); conditions: Compound concentration 1000.0 nM
[10] = system: Tyrosine-protein kinase ABL1 (Homo sapiens), P00519 [Q252H]; conditions: Compound concentration 1000.0 nM
[11] = system: Mast/stem cell growth factor receptor Kit (Homo sapiens), P10721 [V559D,T670I]; conditions: Compound concentration 1000.0 nM
[12] = molecular target: Wee1-like protein kinase 2 (Homo sapiens) (UniProt P0C1S8); conditions: Compound concentration 1000.0 nM
[13] = molecular target: Sodium-dependent dopamine transporter (Homo sapiens) (UniProt Q01959); conditions: Compound concentration 10.0 uM
[14] = molecular target: Tyrosine-protein kinase Fer (Homo sapiens) (UniProt P16591); conditions: Compound concentration 1000.0 nM
[15] = molecular target: Serine/threonine-protein kinase Nek10 (Homo sapiens) (UniProt Q6ZWH5); conditions: Compound concentration 1000.0 nM
[16] = molecular target: Ribosomal protein S6 kinase alpha-1 (Homo sapiens) (UniProt Q15418); conditions: Compound concentration 1000.0 nM
Chain of Ribosomal protein S6 kinase alpha-1 (Homo sapiens) (Q15418 whole entry): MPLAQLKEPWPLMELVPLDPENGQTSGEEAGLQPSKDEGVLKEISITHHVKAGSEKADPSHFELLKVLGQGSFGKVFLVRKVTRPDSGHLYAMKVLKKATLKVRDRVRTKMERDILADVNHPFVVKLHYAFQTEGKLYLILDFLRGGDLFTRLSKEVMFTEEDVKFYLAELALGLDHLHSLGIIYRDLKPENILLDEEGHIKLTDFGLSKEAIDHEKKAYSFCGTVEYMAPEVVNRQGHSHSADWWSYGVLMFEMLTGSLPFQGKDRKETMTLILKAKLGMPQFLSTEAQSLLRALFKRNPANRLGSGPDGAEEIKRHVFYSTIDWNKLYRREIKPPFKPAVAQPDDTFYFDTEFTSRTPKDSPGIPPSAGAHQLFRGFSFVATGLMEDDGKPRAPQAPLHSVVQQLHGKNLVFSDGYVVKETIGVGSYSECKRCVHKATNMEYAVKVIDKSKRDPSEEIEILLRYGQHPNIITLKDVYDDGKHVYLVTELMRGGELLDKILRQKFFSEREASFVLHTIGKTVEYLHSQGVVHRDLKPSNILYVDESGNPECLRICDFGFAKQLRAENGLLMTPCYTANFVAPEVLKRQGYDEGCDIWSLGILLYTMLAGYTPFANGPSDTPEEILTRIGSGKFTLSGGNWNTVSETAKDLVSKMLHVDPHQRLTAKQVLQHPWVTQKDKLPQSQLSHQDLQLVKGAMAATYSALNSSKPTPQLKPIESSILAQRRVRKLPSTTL

[17] = molecular target: 5'-AMP-activated protein kinase catalytic subunit alpha-1 (Homo sapiens) (UniProt Q13131); conditions: Compound concentration 1000.0 nM
[18] = molecular target: Dual specificity protein kinase CLK2 (Homo sapiens) (UniProt P49760); conditions: Compound concentration 1000.0 nM
Chain of Dual specificity protein kinase CLK2 (Homo sapiens) (P49760 whole entry, looked up): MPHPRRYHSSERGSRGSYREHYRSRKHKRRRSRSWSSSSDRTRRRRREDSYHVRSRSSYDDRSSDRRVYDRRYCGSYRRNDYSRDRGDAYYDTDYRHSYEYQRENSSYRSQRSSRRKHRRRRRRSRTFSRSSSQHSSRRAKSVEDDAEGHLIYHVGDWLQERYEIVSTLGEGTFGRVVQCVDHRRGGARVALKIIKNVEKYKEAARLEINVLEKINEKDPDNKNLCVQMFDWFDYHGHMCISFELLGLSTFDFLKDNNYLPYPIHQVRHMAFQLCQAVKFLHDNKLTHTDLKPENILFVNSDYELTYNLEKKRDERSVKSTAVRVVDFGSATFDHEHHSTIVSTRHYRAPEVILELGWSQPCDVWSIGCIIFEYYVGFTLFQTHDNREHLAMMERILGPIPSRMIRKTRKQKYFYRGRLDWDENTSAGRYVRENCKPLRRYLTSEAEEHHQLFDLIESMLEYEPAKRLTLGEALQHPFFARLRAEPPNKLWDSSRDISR

[19] = molecular target: Serine/threonine-protein kinase tousled-like 1 (Homo sapiens) (UniProt Q9UKI8); conditions: Compound concentration 1000.0 nM
[20] = molecular target: Uncharacterized serine/threonine-protein kinase SBK3 (Homo sapiens) (UniProt P0C264); conditions: Compound concentration 1000.0 nM
[21] = molecular target: Dual specificity mitogen-activated protein kinase kinase 2 (Homo sapiens) (UniProt P36507); conditions: Compound concentration 1000.0 nM
[22] = molecular target: Protein kinase C theta type (Homo sapiens) (UniProt Q04759); conditions: Compound concentration 1000.0 nM
[23] = molecular target: SRSF protein kinase 3 (Homo sapiens) (UniProt Q9UPE1); conditions: Compound concentration 1000.0 nM
[24] = molecular target: Non-receptor tyrosine-protein kinase TYK2 (Homo sapiens) (UniProt P29597); conditions: Compound concentration 1000.0 nM
[25] = molecular target: Tyrosine-protein kinase HCK (Homo sapiens) (UniProt P08631); conditions: Compound concentration 1000.0 nM
[26] = molecular target: Mitogen-activated protein kinase 14 (Homo sapiens) (UniProt Q16539); conditions: Compound concentration 1000.0 nM
[27] = molecular target: Fibroblast growth factor receptor 1 (Homo sapiens) (UniProt P11362); conditions: Compound concentration 1000.0 nM
[28] = system: Tyrosine-protein kinase ABL1 (Homo sapiens), P00519 [Y253F]; conditions: Compound concentration 1000.0 nM
[29] = molecular target: Receptor-interacting serine/threonine-protein kinase 2 (Homo sapiens) (UniProt O43353); conditions: Compound concentration 1000.0 nM
Chain of Receptor-interacting serine/threonine-protein kinase 2 (Homo sapiens) (O43353 whole entry): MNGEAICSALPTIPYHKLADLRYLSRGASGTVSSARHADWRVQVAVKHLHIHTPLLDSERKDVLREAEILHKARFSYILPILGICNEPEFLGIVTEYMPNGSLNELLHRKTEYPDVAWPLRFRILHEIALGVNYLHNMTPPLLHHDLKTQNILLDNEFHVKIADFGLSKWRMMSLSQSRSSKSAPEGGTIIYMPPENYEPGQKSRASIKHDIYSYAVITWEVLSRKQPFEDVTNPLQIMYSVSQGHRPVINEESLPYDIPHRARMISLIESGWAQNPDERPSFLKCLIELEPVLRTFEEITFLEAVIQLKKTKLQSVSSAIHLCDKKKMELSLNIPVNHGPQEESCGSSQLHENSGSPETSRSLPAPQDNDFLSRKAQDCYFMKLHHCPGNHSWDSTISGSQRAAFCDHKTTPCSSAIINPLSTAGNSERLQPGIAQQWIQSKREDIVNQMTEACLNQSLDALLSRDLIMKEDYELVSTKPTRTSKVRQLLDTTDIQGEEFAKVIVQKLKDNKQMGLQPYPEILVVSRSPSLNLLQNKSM

[30] = molecular target: Mitogen-activated protein kinase kinase kinase kinase 2 (Homo sapiens) (UniProt Q12851); conditions: Compound concentration 1000.0 nM
[31] = molecular target: Serine/threonine-protein kinase PRP4 homolog (Homo sapiens) (UniProt Q13523); conditions: Compound concentration 1000.0 nM
[32] = molecular target: Mitogen-activated protein kinase kinase kinase kinase 1 (Homo sapiens) (UniProt Q92918); conditions: Compound concentration 1000.0 nM
[33] = molecular target: Myosin light chain kinase (Homo sapiens) (UniProt Q32MK0); conditions: Compound concentration 1000.0 nM
Chain of Myosin light chain kinase (Homo sapiens) (Q32MK0 whole entry): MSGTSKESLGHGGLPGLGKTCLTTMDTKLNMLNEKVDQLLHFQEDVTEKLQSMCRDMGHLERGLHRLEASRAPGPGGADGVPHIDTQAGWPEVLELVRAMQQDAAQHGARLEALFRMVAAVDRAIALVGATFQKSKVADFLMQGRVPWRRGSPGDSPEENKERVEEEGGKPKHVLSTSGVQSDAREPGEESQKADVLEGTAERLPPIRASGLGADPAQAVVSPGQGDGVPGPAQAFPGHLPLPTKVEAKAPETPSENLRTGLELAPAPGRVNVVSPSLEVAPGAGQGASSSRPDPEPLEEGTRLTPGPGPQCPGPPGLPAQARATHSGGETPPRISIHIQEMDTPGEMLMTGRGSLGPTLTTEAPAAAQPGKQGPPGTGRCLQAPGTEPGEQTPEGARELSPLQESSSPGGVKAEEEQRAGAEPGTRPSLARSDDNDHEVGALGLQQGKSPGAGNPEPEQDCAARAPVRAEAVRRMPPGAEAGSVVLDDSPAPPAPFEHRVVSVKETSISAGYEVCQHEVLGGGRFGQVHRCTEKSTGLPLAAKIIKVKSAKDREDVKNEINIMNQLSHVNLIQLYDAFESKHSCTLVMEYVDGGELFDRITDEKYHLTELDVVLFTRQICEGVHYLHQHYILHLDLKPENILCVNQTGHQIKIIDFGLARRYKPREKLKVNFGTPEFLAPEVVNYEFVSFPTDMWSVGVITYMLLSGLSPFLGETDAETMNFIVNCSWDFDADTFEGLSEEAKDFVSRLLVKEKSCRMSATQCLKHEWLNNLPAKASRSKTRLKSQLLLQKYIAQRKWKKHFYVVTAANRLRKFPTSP

[34] = molecular target: Platelet-derived growth factor receptor alpha (Homo sapiens) (UniProt P16234); conditions: Compound concentration 1000.0 nM
[35] = molecular target: Serine/threonine-protein kinase NLK (Homo sapiens) (UniProt Q9UBE8); conditions: Compound concentration 1000.0 nM
Chain of Serine/threonine-protein kinase NLK (Homo sapiens) (Q9UBE8 whole entry): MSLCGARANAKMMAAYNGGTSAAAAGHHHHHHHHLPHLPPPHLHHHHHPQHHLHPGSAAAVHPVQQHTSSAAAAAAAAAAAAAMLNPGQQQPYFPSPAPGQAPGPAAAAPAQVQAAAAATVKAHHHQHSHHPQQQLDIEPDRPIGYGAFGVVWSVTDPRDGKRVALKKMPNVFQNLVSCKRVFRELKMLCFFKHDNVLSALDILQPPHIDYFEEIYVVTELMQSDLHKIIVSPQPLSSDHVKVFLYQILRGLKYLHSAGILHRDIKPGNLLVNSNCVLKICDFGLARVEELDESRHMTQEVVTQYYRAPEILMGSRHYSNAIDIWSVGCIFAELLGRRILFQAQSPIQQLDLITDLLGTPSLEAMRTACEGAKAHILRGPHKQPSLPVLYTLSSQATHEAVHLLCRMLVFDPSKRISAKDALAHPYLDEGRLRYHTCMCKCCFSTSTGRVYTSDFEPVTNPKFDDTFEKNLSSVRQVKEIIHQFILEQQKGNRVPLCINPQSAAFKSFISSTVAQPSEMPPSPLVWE

[36] = molecular target: Mitogen-activated protein kinase 9 (Homo sapiens) (UniProt P45984); conditions: Compound concentration 1000.0 nM
[37] = system: Hepatocyte growth factor receptor (Homo sapiens), P08581 [M1250T]; conditions: Compound concentration 1000.0 nM
[38] = molecular target: Cyclin-dependent kinase 3 (Homo sapiens) (UniProt Q00526); conditions: Compound concentration 1000.0 nM
Chain of Cyclin-dependent kinase 3 (Homo sapiens) (Q00526 whole entry, looked up): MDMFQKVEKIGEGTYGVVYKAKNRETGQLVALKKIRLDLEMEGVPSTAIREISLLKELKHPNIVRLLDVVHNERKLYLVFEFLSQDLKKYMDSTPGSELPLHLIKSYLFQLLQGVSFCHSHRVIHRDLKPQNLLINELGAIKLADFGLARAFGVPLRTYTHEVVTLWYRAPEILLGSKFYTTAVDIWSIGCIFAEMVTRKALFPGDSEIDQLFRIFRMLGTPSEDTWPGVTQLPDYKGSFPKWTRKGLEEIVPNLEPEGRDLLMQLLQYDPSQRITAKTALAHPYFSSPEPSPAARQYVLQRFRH

[39] = molecular target: Serine/threonine-protein kinase RIO1 (Homo sapiens) (UniProt Q9BRS2); conditions: Compound concentration 1000.0 nM
[40] = molecular target: Calcium/calmodulin-dependent protein kinase type II subunit alpha (Homo sapiens) (UniProt Q9UQM7); conditions: Compound concentration 1000.0 nM
[41] = molecular target: Mitogen-activated protein kinase kinase kinase 4 (Homo sapiens) (UniProt Q9Y6R4); conditions: Compound concentration 1000.0 nM
[42] = molecular target: 3-phosphoinositide-dependent protein kinase 1 (Homo sapiens) (UniProt O15530); conditions: Compound concentration 1000.0 nM
Chain of 3-phosphoinositide-dependent protein kinase 1 (Homo sapiens) (O15530 whole entry): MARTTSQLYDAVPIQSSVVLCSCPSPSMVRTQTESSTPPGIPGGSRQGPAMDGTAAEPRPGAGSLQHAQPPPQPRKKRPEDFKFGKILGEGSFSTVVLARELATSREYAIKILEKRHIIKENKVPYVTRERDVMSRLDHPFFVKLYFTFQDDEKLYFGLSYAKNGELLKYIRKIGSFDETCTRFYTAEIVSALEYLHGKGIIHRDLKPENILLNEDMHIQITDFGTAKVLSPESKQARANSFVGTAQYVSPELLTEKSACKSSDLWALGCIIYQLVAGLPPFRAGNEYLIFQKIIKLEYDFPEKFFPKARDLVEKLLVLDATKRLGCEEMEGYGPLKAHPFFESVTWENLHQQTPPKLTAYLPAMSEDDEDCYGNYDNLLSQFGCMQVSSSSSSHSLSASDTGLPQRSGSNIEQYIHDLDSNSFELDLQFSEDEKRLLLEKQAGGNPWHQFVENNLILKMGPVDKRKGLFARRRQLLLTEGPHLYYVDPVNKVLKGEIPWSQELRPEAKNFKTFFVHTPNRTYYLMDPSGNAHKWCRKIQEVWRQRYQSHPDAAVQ

[43] = molecular target: 5-hydroxytryptamine receptor 1A (Homo sapiens) (UniProt P08908); conditions: Compound concentration 10.0 uM
Chain of 5-hydroxytryptamine receptor 1A (Homo sapiens) (P08908 whole entry): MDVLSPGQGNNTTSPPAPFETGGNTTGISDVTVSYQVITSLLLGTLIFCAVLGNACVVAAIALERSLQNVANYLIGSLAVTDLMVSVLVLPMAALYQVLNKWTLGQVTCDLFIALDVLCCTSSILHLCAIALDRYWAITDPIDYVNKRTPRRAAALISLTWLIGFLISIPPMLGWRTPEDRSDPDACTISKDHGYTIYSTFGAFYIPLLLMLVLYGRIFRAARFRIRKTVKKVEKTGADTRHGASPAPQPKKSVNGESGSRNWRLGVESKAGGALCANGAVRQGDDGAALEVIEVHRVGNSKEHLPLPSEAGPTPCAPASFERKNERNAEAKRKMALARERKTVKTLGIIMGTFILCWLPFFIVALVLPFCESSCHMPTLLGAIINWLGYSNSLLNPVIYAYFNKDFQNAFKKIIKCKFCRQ

[44] = molecular target: Histamine H2 receptor (Homo sapiens) (UniProt P25021); conditions: Compound concentration 10.0 uM
[45] = molecular target: Mitogen-activated protein kinase 8 (Homo sapiens) (UniProt P45983); conditions: Compound concentration 1000.0 nM

COc1cccc(CNC(=O)c2nc3scc(COCc4ccc(C(=O)O)cc4)c3c(=O)[nH]2)c1 [T-26c]
inactive: inhibition [1] 10.5% | residual activity [2] 86.3% | residual activity [3] 70% | residual activity [4] 85.2% | residual activity [5] 100% | residual activity [6] 85% | residual activity [7] 78.9% | residual activity [8] 100% | residual activity [9] 84.2% | residual activity [10] 86.4% | residual activity [11] 100% | residual activity [12] 96.9% | inhibition [13] 9.28% | residual activity [14] 100% | residual activity [15] 61.7% | residual activity [16] 100% | residual activity [17] 70.3% | residual activity [18] 92.4% | residual activity [19] 100% | residual activity [20] 100% | residual activity [21] 75.1% | residual activity [22] 100% | residual activity [23] 70.1% | residual activity [24] 95% | residual activity [25] 79.7% | residual activity [26] 96.7% | residual activity [27] 86.5% | residual activity [28] 84.6% | residual activity [29] 100% | residual activity [30] 83% | residual activity [31] 97.3% | residual activity [32] 100% | residual activity [33] 72.8% | residual activity [34] 56.3% | residual activity [35] 80.3% | residual activity [36] 97.1% | residual activity [37] 98% | residual activity [38] 100% | residual activity [39] 52.1% | residual activity [40] 92.5% | residual activity [41] 86.6% | residual activity [42] 87.8% | inhibition [43] 7.7% | inhibition [44] 28.4% | residual activity [45] 100%
